Reference: patent US20250375410A1, “COMPOUND FOR PREVENTING OR TREATING NONALCOHOLIC FATTY LIVER DISEASE AND COMPOSITION THEREOF” (SUNWAY BIOTECH CO., LTD., priority 2024, published 2025)
Marks after values point to notes of the source that are not given here.

Assays:
Format in all cases: in vivo, C57BL/6J mice
[1] = tested on: nonalcoholic fatty liver mice induced by high-fat feed; assay: Liver weight and liver/body weight ratio in high-fat feed induced nonalcoholic fatty liver mice
Experimental: (§1) 1. Preparation of the Composition of the Present invention • (1) L008 and H008 groups: The composition is the red yeast rice of the present invention obtained by fermenting rice with the Monascus pilosus of the present invention as described in Embodiment 2. The daily dosage for adults in the L008 and H008 groups is 0.5 g/day and 2 g/day, containing 1.5 mg/day and 6 mg/day of monascinol (a compound having the structure of Formula (I)), respectively. • (2) Msol group: Monascinol (a compound having the structure of Formula (I)), with a daily dosage of 6 mg/day for adults.
(§2) The experiment used 7-week-old male C57BL/6J strain mice purchased from the National Laboratory Animal Center. The initial body weight was about 23 g, with 12 mice per group. They were housed at 60% relative humidity, room temperature 25±1° C., with a 12-hour light cycle (8:00-20:00). The experiment lasted for 22 weeks, during which food and water were provided ad libitum. Body weight, food intake, and water consumption were measured weekly.
(§3) The feeding dosage calculation was based on the experiment initial estimation method published by the U.S. Food and Drug Administration in 2005 (Estimating the maximum safe starting dose in initial clinical trials for therapeutics in adult healthy volunteers). Using a 60 kg adult as the standard, when conducting trials on higher experimental animals, the dosage conversion principle is to use 12.3 times the recommended daily intake per kilogram of human body weight (mg/kg bw/day) as the recommended daily intake per kilogram of mouse body weight. The calculation formula is as follows: […]
(§4) Embodiment 4 uses a high-fat feed to induce a nonalcoholic fatty liver animal model. The animal experiment lasted for 22 weeks. Animal test feed was prepared according to the formula of Research Diets (New Brunswick, NJ, USA) for D12450B and D12492. The grouping is as follows: • i. ND group: Normal animal group. • ii. HFD group: Control group, nonalcoholic fatty liver mice induced by high-fat feed. • iii. L008 group: Nonalcoholic fatty liver mice induced by high-fat feed and gavaged daily with red yeast rice powder, equivalent to 0.5 g of the red yeast rice of the present invention consumed daily by a 60 kg adult, containing 1.5 mg monascinol (a compound having the structure of Formula (I)). • iv. H008 group: Nonalcoholic fatty liver mice induced by high-fat feed and gavaged daily with red yeast rice powder, equivalent to 2 g of the red yeast rice of the present invention consumed daily by a 60 kg adult, containing 6 mg monascinol (a compound having the structure of Formula (I)). • v. […]

[2] = tested on: nonalcoholic fatty liver mice induced by high-fat feed; assay: Liver lipid extraction and measurement (TG, TC) in high-fat feed induced nonalcoholic fatty liver mice
Experimental: as §1, §2, §3
Embodiment 4 uses a high-fat feed to induce a nonalcoholic fatty liver animal model. The animal experiment lasted for 22 weeks. Animal test feed was prepared according to the formula of Research Diets (New Brunswick, NJ, USA) for D12450B and D12492. The grouping is as follows: • i. ND group: Normal animal group. • ii. HFD group: Control group, nonalcoholic fatty liver mice induced by high-fat feed. • iii. […]

[3] = tested on: nonalcoholic fatty liver mice induced by high-fat feed; assay: Liver histopathology (H&E staining) assessment in high-fat feed induced nonalcoholic fatty liver mice
Experimental: as §1, §2, §3
Embodiment 4 uses a high-fat feed to induce a nonalcoholic fatty liver animal model. The animal experiment lasted for 22 weeks. Animal test feed was prepared according to the formula of Research Diets (New Brunswick, NJ, USA) for D12450B and D12492. The grouping is as follows: • i. ND group: Normal animal group. • ii. HFD group: Control group, nonalcoholic fatty liver mice induced by high-fat feed. • iii. L008 group: Nonalcoholic fatty liver mice induced by high-fat feed and gavaged daily with red yeast rice powder, equivalent to 0.5 g of the red yeast rice of the present invention consumed daily by a 60 kg adult, containing 1.5 mg monascinol (a compound having the structure of Formula (I)). • iv. H008 group: Nonalcoholic fatty liver mice induced by high-fat feed and gavaged daily with red yeast rice powder, equivalent to 2 g of the red yeast rice of the present invention consumed daily by a 60 kg adult, containing 6 mg monascinol (a compound having the structure of Formula (I)). • v. Msol group: Nonalcoholic fatty liver mice induced by high-fat feed and gavaged daily with monascinol (a compound having the structure of Formula (I)) powder, equivalent to 6 mg of monascinol (a compound having the structure of Formula (I)) powder consumed daily by a 60 kg adult.
In the 22nd week of the experiment, food was withheld for 12-14 hours before blood collection. […] The obtained blood samples were centrifuged at 4° C., 3,000×g for 15 minutes. The upper layer of blood was aliquoted into eppendorf tubes and stored at −80° C. The liver was weighed, and the second largest lobe was preserved in 10% pathological formalin. The remaining liver was washed with 0.9% physiological saline, and along with the kidneys, placed in zipper bags and stored at −80° C.
The liver was fixed in 10% formalin, dehydrated, and embedded in paraffin to make tissue sections. […]

[4] = tested on: nonalcoholic fatty liver mice induced by high-fat feed; assay: Serum liver function indices AST and ALT in high-fat feed induced nonalcoholic fatty liver mice
Experimental: as §1, §2, §3
Embodiment 4 uses a high-fat feed to induce a nonalcoholic fatty liver animal model. The animal experiment lasted for 22 weeks. […]
A biochemical auto-analyzer (Model Beckman-700, purchased from Fullerton, CA, USA) was used for detection. The items detected were: TC (Total Cholesterol), TG (Triglyceride), AST (Aspartate Aminotransferase) and ALT (Alanine Aminotransferase) activities.

[5] = tested on: gut microbiota of nonalcoholic fatty liver mice; assay: Analysis of gut microbiota (full-length 16S sequencing) in nonalcoholic fatty liver mice; settings: compared with the HFD group; L008, H008 and Msol groups
Experimental: as §4, with “iv.” for “iv. H008 group: Nonalcoholic fatty liver mice induced by high-fat feed and gavaged daily with red yeast rice powder, equivalent to 2 g of the red yeast rice of the present invention consumed daily by a 60 kg adult, containing 6 mg monascinol (a compound having the structure of Formula (I)). • v.”
(1) Extraction of Genomic DNA and PCR Amplification and Purification Total genomic DNA was extracted from samples (QIAamp PowerFecal DNA, Qiagen). DNA concentration was determined using a Qubit 4.0 fluorometer (Thermo Scientific) and adjusted to 1 ng/μL. […] PCR reactions were performed using KAPA HiFi HotStart ReadyMix (Roche): 95° C., 3 minutes; 20-27 cycles (sample-dependent): 95° C., 30 seconds, 57° C., 30 seconds, 72° C., 60 seconds; 72° C. for 5 minutes, and final storage at 4° C. PCR products were monitored on 1% agarose gel. […]

[6] = Msol group: monascinol 0.0012 g/kg bw/day by gavage, high-fat diet, 22 weeks, mean ± SD, n = 8
[7] = lesion severity grade (0 to 4), Msol group: monascinol 0.0012 g/kg bw/day, high-fat diet, 22 weeks, mean ± SD, n = 8
[8] = serum, Msol group: monascinol 0.0012 g/kg bw/day by gavage, high-fat diet, 22 weeks, mean ± SD, n = 8

## Monascinol [Msol]
[1]; [6]
  Liver Weight: 1.01 ± 0.06 ^a g
  Liver/Body Weight: 2.85 ± 0.24 ^a %
[1]; versus HFD group, p<0.05, various doses (L008 and H008 groups) and Msol
  Effect on liver weight, in words: significantly reducing liver weight
[1]; versus HFD group, various doses (L008 and H008 groups) and Msol
  Effect on liver/body weight ratio, in words: improving the liver/body weight ratio
[2]; [6]
  Liver TC: 1.02 ± 0.32 ^ab mg/g
  Liver TG: 7.25 ± 0.71 ^a mg/g
[2]; versus HFD group, p<0.05
  Effect on TC and TG in the liver, in words: effectively reduced the accumulation of TC and TG in the liver
[3]; [7]
  Fatty change with macro-vesicles, multifocal: 0.3 ± 0.7 ^a
  Fatty change with micro-vesicles, multifocal: 0.1 ± 0.4 ^a
  Fatty change, general: 0.3 ± 0.7 ^a
[3]; lesion severity grade (0 to 4), Msol group: monascinol 0.0012 g/kg bw/day, high-fat diet, 22 weeks, n = 8
  Inflammation, granulomatous, multifocal: 0 ^a
[3]; versus HFD group, p<0.05
  Effect on accumulation of liver lipid droplets / fatty infiltration, in words (FIG. 7, Table 6): significantly improved the accumulation of liver lipid droplets and fatty infiltration
[4]; [8]
  ALT Activity: 25.3 ± 3.4 ^a U/L
  AST Activity: 60.6 ± 3.7 ^a U/L
[4]; versus HFD group, various doses (L008 and H008 groups) and Monascinol
  Effect on serum AST and ALT activities, in words: significantly reduced AST and ALT activities
[5]
  Abundance of Blautia and Intestinimonas in the intestine, in words (FIG. 9): increase the microbial populations of Blautia and Intestinimonas
